Counter-ions that a name gives are not always drawn. Like-named read-outs stand apart in the source and are kept apart here.
Experiments:
[1] = tested on: tetrabenazine-induced sedation and depression in mice; assay: Antagonism of tetrabenazine-induced depression in mice, orally; type: in vivo, female white mice (Carworth CF1 S); settings: oral, 1 hr post drug, 30 minutes after tetrabenazine 32 mg/kg intraperitoneally, female mice; for ED50: Mus musculus, read-out: ED50 for prevention of ptosis
Method: Relief from ptosis was recorded when exactly two seconds after placing the mouse facing the observer, lid closure was less than 50% in both eyes.

[2] = tested on: tetrabenazine-induced sedation and depression in mice; assay: as above; type: in vivo, female white mice (Carworth CF1 S); settings: oral, 1 hr post drug, 30 minutes after tetrabenazine 32 mg/kg intraperitoneally, female mice; for ED50: Mus musculus, read-out: ED50 for prevention of exploratory loss
[3] = background statement, no test described; cited from earlier work

Compound	ED50 [1]	ED50 [2]	side effects [3]	ED50 for prevention of ptosis [1]	ED50 for prevention of exploratory loss [2]
CC(O)CCN1CCC2C3c4ccccc4C(c4ccccc43)C2C1 (centres unmarked)	4.9 mg/kg	5.6 mg/kg			
c1ccc(OCCN2CCC3C4c5ccccc5C(c5ccccc54)C3C2)cc1 (centres unmarked)	10.8 mg/kg	27 mg/kg			
CCOC(=O)CCN1CCC2C3c4ccccc4C(c4ccccc43)C2C1 (racemic) [(±)1,2,3,4,4a,5,10,10a-octahydro-5,10-o-benzenobenz[g]isoquinoline-2-propionic acid ethyl ester]	8.1 mg/kg	20 mg/kg			
CCCCN1CCC2C3c4ccccc4C(c4ccccc43)C2C1 (racemic) [(±)2-(1-butyl)-1,2,3,4,4a,5,10,10a-Octahydro-5,10-o-benzenobenz[g]isoquinoline Maleate]	11.2 mg/kg	19 mg/kg			
c1ccc(CCN2CCC3C4c5ccccc5C(c5ccccc54)C3C2)cc1 (racemic) [R=CH2 CH2 C6 H5, R1=H, R2=H, R3=H, R4=H, (±)1,2,3,4,4a,5,10,10a-octahydro-2-phenethyl-5,10-o-benzenobenz[g]isoquinoline, hydrochloride hemihydrate]	11.8 mg/kg	13.6 mg/kg			
CC(=O)CCN1CCC2C3c4ccccc4C(c4ccccc43)C2C1 (racemic) [R=CH2 CH2 COCH3, R1=H, R2=H, R3=H, R4=H, (±)4-(1,2,3,4,4a,5,10,10a-Octahydro-5,10-o-benzenobenz[g]isoquinoline-2-yl)-2-butanone Maleate]	2.1 mg/kg	4.4 mg/kg			
O=C(O)CCN1CCC2C3c4ccccc4C(c4ccccc43)C2C1 (racemic) [R=CH2 CH2 COOH, R1=H, R2=H, R3=H, R4=H, (±)1,2,3,4,4a,5,10,10a-Octahydro-5,10-o-benzenobenz[g]isoquinoline-2-propionic Acid Hydrochloride]	15 mg/kg	27 mg/kg			
c1ccc(C(CN2CCC3C4c5ccccc5C(c5ccccc54)C3C2)c2ccccc2)cc1 (racemic) [R=CH2 CH(C6 H5)2, R1=H, R2=H, R3=H, R4=H, (±)1,2,3,4,4a,5,10,10a-octahydro-2-(2,2-diphenylethyl)-5,10-o-benzenobenz[g]isoquinoline hydrochloride]	12 mg/kg	47 mg/kg			
CN1CCC2C3c4ccccc4C(c4ccccc43)C2C1 (racemic) [R=CH3, R1=H, R2=H, R3=H, R4=H, (±)1,2,3,4,4a,5,10,10a-Octrahydro-2-methyl-5,10-o-benzenobenz[g]isoquinoline Hydrochloride]	1 mg/kg	6 mg/kg			
CCOC(=O)N1CCC2C3c4ccccc4C(c4ccccc43)C2C1 (racemic) [R=COOC2 H5, R1=H, R2=H, R3=H, R4=H, (±)1,2,3,4,4a,5,10,10a-Octahydro-5,10-o-benzenobenz[g]isoquinoline-2-carboxylic Acid, Ethyl Ester]	2.1 mg/kg	5.4 mg/kg			
c1ccc2c(c1)C1c3ccccc3C2C2CNCCC12 (racemic) [R=H, R1=H, R2=H, R3=H, R4=H, (±)1,2,3,4,4a,5,10,10a-Octahydro-5,10-o-benzenobenz[g]isoquinoline Hydrochloride]	0.41 mg/kg	1.5 mg/kg			
CN(C)CCC=C1c2ccccc2CCc2ccccc21 [Amitriptyline, reference compound]	1 mg/kg	1.2 mg/kg			
CN(C)CCCN1c2ccccc2CCc2ccccc21 [Imipramine]			may cause blurred vision, dryness of mouth, constipation, urinary retention, orthostatic hypotension, respiration depression, myocardial infarction and congestive heart failure		
(±)1,2,3,4,4a,5,10,10a-octahydro-5-(or: -10)-methyl-5,10-o-benzobenz[g]isoquinoline hydrochloride [R=H, R1=CH3 (H), R2=H(CH3), R3=H, R4=H]				22 mg/kg	38 mg/kg
(±)1,2,3,4,4a,5,10,10a-octahydro-7-(or: -8-)methyl-5,10-o-benzenobenz[g]isoquinoline hydrochloride [R=H, R1=H, R2=H, R3=7 or 8-CH3, R4=H]				.94 mg/kg	4.8 mg/kg
(±)1,2,3,4,4a,-5,10,10a-octahydro-2,5-dimethyl-5,10-o-benzenobenz[g]isoquinoline or (±)1,2,3,4,4a,5,10,10a-octahydro-2,10-dimethyl-5,10-o-benzenobenz[g]isoquinoline [R=CH3, R1=CH3 (H), R2=H(CH3), R3=H, R4=H]				21 mg/kg	27 mg/kg
(±)2-(1-adamantylmethyl)-1,2,3,4,4a,5,10,10a-octahydro-5,10-o-benzenobenz[g]isoquinoline, hydrochloride hemihydrate [R=1-adamantyl, R1=H, R2=H, R3=H, R4=H]				24 mg/kg	41 mg/kg
(±)6,10-dichloro-1,2,3,4,4a,5,10,10a-octahydro-2-methyl-5,10-o-benzenobenz[g]isoquinoline hydrochloride [R=CH3, R1=H, R2=H, R3=6-Cl, R4=10-Cl]				12.2 mg/kg	22 mg/kg
(±)6-(or: -9-)-chloro-1,2,3,4,4a,5,10,10a-octahydro-2-methyl-5,10-o-benzenobenz[g]isoquinoline hydrochloride [R=CH3, R1=H, R2=H, R3=6 or 9-Cl, R4=H]				1.3 mg/kg	1.4 mg/kg
(±)6-(or: -9-)chloro-1,2,3,4,4a,10,10a-octahydro-5,10-o-benzenobenz[g]isoquinoline hydrochloride [R=H, R1=H, R2=H, R3=6 or 9-Cl, R4=H]				2.2 mg/kg	2.5 mg/kg
(±)7-(or: -8-)-chloro-1,2,3,4,4a,5,10,10a-octahydro-5,10-o-benzenobenz[g]isoquinoline hydrochloride [R=H, R1=H, R2=H, R3=7 or 8-Cl, R4=H]				1.4 mg/kg	1.7 mg/kg
(±)7-(or: -8-)-fluoro-1,2,3,4,4a,5,10,10a-octahydro-5,10-o-benzenobenz[g]isoquinoline hydrochloride [R=H, R1=H, R2=H, R3=7 or 8-F, R4=H]				.58 mg/kg	1.7 mg/kg
(±)7-(or: -8-)chloro-1,2,3,4,4a,5,10,10a-octahydro-2-methyl-5,10-o-benzenobenz[g]isoquinoline hydrochloride hemihydrate [R=CH3, R1=H, R2=H, R3=7 or 8-Cl, R4=H]				3.4 mg/kg	4.5 mg/kg
(±)7-(or: -8-)fluoro-1,2,3,4,4a,5,10,10a-octahydro-2-methyl-5,10-o-benzenobenz[g]isoquinoline hydrochloride [R=CH3, R1=H, R2=H, R3=7 or 8-F, R4=H]				2.0 mg/kg	2.7 mg/kg

Source: patent US4351836A, “1,2,3,4,4a,5,10,10a-Octahydro-5,10-ortho-benzenobenz[g]isoquinolines and antidepressant use thereof” (E. I. Du Pont de Nemours and Company, priority 1980, dated 1982)
